According to the supplement of paper PMC10307832:

Key:
Assay in all cases: relative viability (nuclei count vs DMSO), 5 days (fraction); higher = more cells survive
[1] = compound: C1=CC=C2C(=C1)C=CC(=C2SSC3=C(C=CC4=CC=CC=C43)O)O [IPA-3] + NC(=O)Nc1cc(-c2cccc(F)c2)sc1C(=O)N[C@H]1CCCNC1 [AZD7762] (partner 0.2 µM)
Outline: (§1)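 Lung cancer cell lines, seeded in 1536-well plates, were treated the following day by pin tool with a single drug or with five library-drug doses (not always all listed) in √10 steps on top of a fixed anchor-drug dose. Cells were fixed and nuclei stained in one step after 5 days, and nuclei were counted. Relative viability is the nuclei count for treated wells divided by that for vehicle wells, reported as medians of duplicate plates.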

[2] = compound: Cn1c(Nc2ccc(C(F)(F)F)cc2)nc2cc(Oc3ccnc(-c4ncc(C(F)(F)F)[nH]4)c3)ccc21 [RAF265] + O=C(c1cc(Cc2n[nH]c(=O)c3ccccc23)ccc1F)N1CCN(C(=O)C2CC2)CC1 [Olaparib] (partner 8 µM)
Outline: as §1

[3] = compound: C1=CC=C2C(=C1)C=CC(=C2SSC3=C(C=CC4=CC=CC=C43)O)O [IPA-3] + Cc1nc(Nc2ncc(C(=O)Nc3c(C)cccc3Cl)s2)cc(N2CCN(CCO)CC2)n1 [Dasatinib] (partner 0.075 µM)
Outline: as §1

[4] = compound: Cc1ccc(-n2nc(C(C)(C)C)cc2NC(=O)Nc2ccc(OCCN3CCOCC3)c3ccccc23)cc1 [Doramapimod] + NC(=O)Nc1cc(-c2cccc(F)c2)sc1C(=O)N[C@H]1CCCNC1 [AZD7762] (partner 0.2 µM)
Outline: as §1

| Cell Line | relative viability ([1]; first compound 0.2 µM) | relative viability ([1]; first compound 0.6325 µM) | relative viability ([1]; first compound 2 µM) | relative viability ([1]; first compound 6.325 µM) | relative viability ([1]; first compound 20 µM) | relative viability ([2]; first compound 0.01 µM) | relative viability ([2]; first compound 0.03162 µM) | relative viability ([2]; first compound 0.1 µM) | relative viability ([2]; first compound 0.3162 µM) | relative viability ([2]; first compound 1 µM) | relative viability ([3]; first compound 0.2 µM) | relative viability ([3]; first compound 0.6325 µM) | relative viability ([3]; first compound 2 µM) | relative viability ([3]; first compound 6.325 µM) | relative viability ([3]; first compound 20 µM) | relative viability ([4]; first compound 0.02 µM) | relative viability ([4]; first compound 0.06325 µM) | relative viability ([4]; first compound 0.2 µM) | relative viability ([4]; first compound 0.6325 µM) | relative viability ([4]; first compound 2 µM) |
| --- | --- | --- | --- | --- | --- | --- | --- | --- | --- | --- | --- | --- | --- | --- | --- | --- | --- | --- | --- | --- |
| NCI-H522 | 0.974 | 0.809 | 0.759 | 1.02 | 0.91 | 0.791 | 0.695 | 0.737 | 0.728 | 0.57 | 0.875 | 0.922 | 0.847 | 0.86 | 0.884 | 0.879 | 0.744 | 0.708 | 0.736 | 0.9 |
| NCI-H1437 | 1.2 | 1.08 | 1.18 | 1.06 | 1.19 | 0.644 | 0.611 | 0.653 | 0.619 | 0.561 | 0.542 | 0.411 | 0.286 | 0.501 | 0.718 | 1.13 | 1.16 | 1.23 | 1.05 | 1.08 |
| NCI-H2405 | 0.89 | 0.806 | 0.847 | 0.771 | 0.73 | 0.96 | 0.88 | 0.834 | 0.838 | 0.514 | 0.221 | 0.204 | 0.204 | 0.163 | 0.211 | 0.821 | 0.746 | 0.758 | 0.895 | 0.686 |
| NCI-H838 | 1.05 | 0.94 | 1 | 0.967 | 1.08 | 0.829 | 0.725 | 0.752 | 0.694 | 0.594 | 0.32 | 0.234 | 0.291 | 0.319 | 0.328 | 0.869 | 0.962 | 0.958 | 0.902 | 0.92 |
| NCI-H1734 | 0.637 | 0.508 | 0.624 | 0.571 | 0.496 | 0.627 | 0.574 | 0.575 | 0.511 | 0.344 | 0.564 | 0.486 | 0.459 | 0.507 | 0.444 | 0.418 | 0.608 | 0.498 | 0.75 | 0.434 |
| NCI-H596 | 1.1 | 1.07 | 1.11 | 1.21 | 1.3 | 0.825 | 0.765 | 0.711 | 0.727 | 0.535 | 0.635 | 0.573 | 0.765 | 0.69 | 0.752 | 1.27 | 1.08 | 1.13 | 1.31 | 1.1 |
| NCI-H1944 | 0.766 | 0.492 | 0.536 | 0.718 | 0.541 | 0.43 | 0.44 | 0.385 | 0.361 | 0.26 | 0.213 | 0.198 | 0.244 | 0.314 | 0.234 | 0.468 | 0.62 | 0.341 | 0.647 | 0.312 |
| LK-2 | 0.456 | 0.394 | 0.355 | 0.672 | 0.397 | 0.794 | 0.751 | 0.769 | 0.668 | 0.512 | 0.261 | 0.27 | 0.222 | 0.28 | 0.282 | 0.347 | 0.216 | 0.298 | 0.258 | 0.165 |
| HCC-15 | 1.48 | 1.29 | 1.18 | 1.18 | 1.37 | 0.837 | 0.647 | 0.656 | 0.608 | 0.43 | 0.682 | 0.605 | 0.548 | 0.596 | 0.471 | 1.35 | 1.17 | 1.23 | – | 1.17 |
| NCI-H727 | 0.652 | 0.604 | 0.674 | 0.617 | 0.706 | 0.701 | 0.685 | 0.708 | 0.593 | 0.547 | 0.295 | 0.423 | 0.328 | 0.385 | 0.389 | 0.605 | 0.576 | 0.642 | 0.487 | 0.528 |
| HOP-62 | 0.787 | 0.828 | 0.657 | 0.606 | 0.661 | 0.461 | 0.448 | 0.439 | 0.479 | 0.268 | 0.807 | 0.577 | 0.71 | 0.589 | 0.67 | 0.629 | 0.676 | 0.585 | 0.647 | 0.651 |
| NCI-H3122 | 1.02 | 1.01 | 0.995 | 1.11 | 0.999 | 0.609 | 0.63 | 0.631 | 0.622 | 0.611 | 0.804 | 0.751 | 0.847 | 0.919 | 0.926 | 1.11 | 1.09 | 1.05 | 1 | 1.12 |
| NCI-H1395 | 0.377 | 0.413 | 0.423 | 0.373 | 0.345 | 0.478 | 0.431 | 0.434 | 0.49 | 0.46 | 0.408 | 0.42 | 0.385 | 0.44 | 0.466 | 0.392 | 0.39 | 0.355 | 0.443 | 0.349 |
| NCI-H647 | 0.675 | 0.408 | 0.555 | 0.402 | 0.0953 | 0.422 | 0.494 | 0.357 | 0.399 | 0.306 | 0.271 | 0.175 | 0.192 | 0.115 | 0.0437 | 0.602 | 0.616 | 0.461 | 0.485 | 0.454 |
| NCI-H650 | 1.1 | 1.01 | 1.08 | 0.935 | 1.08 | 0.384 | 0.383 | 0.376 | 0.324 | 0.174 | 0.461 | 0.498 | 0.439 | 0.438 | 0.44 | 0.88 | 1.11 | 0.941 | 1.16 | 1.02 |
| EKVX | 0.858 | 0.708 | 0.72 | 0.654 | 0.744 | 0.806 | 0.866 | 0.966 | 0.646 | 0.653 | 0.538 | 0.544 | 0.599 | 0.537 | 0.486 | 0.679 | 0.676 | 0.717 | 0.635 | 0.678 |
